Test results reported in patent US9447418B2, “Pro- and anti-angiogenic treatments” (UNIVERSITY OF BRISTOL, priority 2007, dated 2016).

Assays:
Assay type in all cases: cell-based, human
[1] = tested on: VEGF terminal exon splice site selection; experiment: RT-PCR of podocyte mRNA for proximal (VEGFxxx) and distal (VEGFxxxb) spliced isoforms; details: podocytes; for TGF-β1 induced VEGFxxxb expression, effect of inhibitor: FIG. 6; for TGF-β1 mediated increased intensity of the VEGFxxxb band (RT-PCR), effect of inhibitor: confirmed by Western blotting and ELISA
Experimental: To confirm that the changes seen by TGF-β1 were at the mRNA level, and the effect of inhibitors acted at the mRNA level, real time polymerase chain reaction (RT-PCR) was carried out using primers that detect both proximal splice isoforms (VEGFxxx, 135 bp band) and distal spliced isoforms (VEGFxxxb, 74 bp band). […] This increase in intensity was inhibited by SB203820, but not by the p42/p44MAPK inhibitor PD98059. […] These findings were confirmed by Western blotting (FIG. 5B) and ELISA (FIG. 5C).

[2] = tested on: VEGF terminal exon splice site selection; experiment: VEGF isoform ELISA of podocytes (PCIP) after growth factor / inhibitor treatment; details: for increase of VEGFxxxb protein level / increase of total VEGF protein expression: 48 h
Experimental: (§1) Proliferating Conditionally Immortalized Podocytes (PCIPs) were derived from cell lines conditionally transformed from normal human podocytes with temperature-sensitive mutant of immortalized SV-40 (Simian Virus 40) T-antigen. At the permissive temperature of 33° C. the SV-40 T-antigen is active and allows the cells to proliferate rapidly (46). PCIPs were cultured in T75 flasks (Greiner) in RPMI-1640® cell culture medium (Sigma) with 10% FBS (Foetal Bovine Serum), 1% ITS (Insulin Transferrin Selenium) (Sigma), 0.5% PSS (Penicillin Streptomycin Solution) (Sigma) and grown to 95% confluency. Then cells were split to six well plates (1×10^4 cells per well) and grown until 95% confluent.
We investigated time- and dose-dependent effects of Insulin-like Growth Factor 1 (IGF-1), Transforming Growth Factor β1 (TGF-β1) and Platelet-Derived Growth Factor (PDGF) on production of VEGF isoforms from cultured PCIPs. Twenty-four hours before treatment cultured medium was replaced with serum free RPMI-1654 medium (Sigma) containing 1% ITS (Sigma) and 0.5% PSS (Sigma). Subsequently, the medium was replaced with fresh serum free RPMI-1654 medium (Sigma) containing 1% ITS (Sigma), 0.5% PSS (Sigma) and increasing concentrations of IGF-1 (Sigma), or TGF-β1 (Sigma) or 40 ng/mL PDGF (Sigma). The conditioned media were collected 24 or 48 hours after stimulation (IGF-1, TGF-β1) and 48 hours (PDGF).
(§2) Total VEGF concentrations in the neat RPE conditioned medium were measured using a standard DuoSet VEGF ELISA (R&D) according to manufacture's instruction. VEGFxxxb was determined with a similar sandwich ELISA, using for capture a monoclonal biotinylated mouse anti-human antibody raised against the terminal nine amino acids of VEGF165b (R&D Systems Cat No. MVRL56/1) and a standard curve for this assay built with recombinant human VEGF165b (R&D). This MVRL56/1 antibody is a commercially available affinity purified mouse monoclonal IgG1 antibody, that has been characterised previously (42, 54).

[3] = tested on: VEGF terminal exon splice site selection; experiment: Western blotting of podocyte cell lysate
Experimental: as §1
We investigated time- and dose-dependent effects of Insulin-like Growth Factor 1 (IGF-1), Transforming Growth Factor β1 (TGF-β1) and Platelet-Derived Growth Factor (PDGF) on production of VEGF isoforms from cultured PCIPs. Twenty-four hours before treatment cultured medium was replaced with serum free RPMI-1654 medium (Sigma) containing 1% ITS (Sigma) and 0.5% PSS (Sigma). […]
Protein samples were dissolved in Laemmli buffer, boiled for 3-4 min and centrifuged for 2 min at 20,000 g to remove insoluble materials. […] The immunoreactive bands corresponding to panVEGF and VEGFxxxb in each treatment were quantified by ImageJ analysis and normalised to those of β-tubulin.

[4] = tested on: VEGF terminal exon splice site selection; experiment: IGF-induced proximal splicing (PSS) in podocytes by RT-PCR and ELISA; details: for IGF-induced increase in PSS, effect of inhibitor: podocytes
Description: Treatment of podocytes with IGF increases PSS as evidenced by RT-PCR and ELISA. This increase is inhibited by the PKC inhibitor BIM and the SR protein kinase inhibitor SERPIN340 (FIGS. 12 and 13).

[5] = tested on: VEGF terminal exon splice site selection; experiment: VEGF isoform ELISA of RPE cells after agonist stimulation (IGF-1, TNF-α)
Experimental: Human donor eyes were obtained within 10-30 hours post-mortem from Bristol Eye Bank, Bristol, United Kingdom. Choroid-RPE sheets dissected from ocular globes were fragmented in a small amount of Dulbecco's Modification of Eagle's Medium: Ham's F12 mixture (DMEM: F12) (1:1)+GlutaMAX® supplement (Gibco) and RPE cells were isolated by digestion with 0.3 mg/ml collagenase (Gibco) for 15 min at 37° C. RPE cells were initially cultured for 5 days in the presence of 2.5% v/v foetal bovine serum (FBS) (Gibco) to prevent proliferation of fibroblasts and until the cell cultures became established. After the first passage cell culture was maintained in DMEM:F12 (1:1), supplemented with 10% v/v FBS and antibiotic/antimycotic solution (Sigma). The once passaged cells were homogeneous and contained only RPE as characterized by immunhistochemistry with anti-cytokeratin monoclonal antibody (Sigma). Cultures of RPE were routinely subcultured by trypsinisation (trypsin/EDTA, Sigma). RPE cells at passage 3-4 were plated onto 12.5 cm^2 Petri dishes (Nunc) and allowed to reach 70-80% confluency.
(§3) To determine the effects of agonists the RPE cells were cultured in freshly-replaced medium in the absence of FBS for 24 hours prior to agonist stimulation. IGF-1 (Sigma) and TNF-α (Sigma) were prepared in serum-free medium and were added in the volume of 2 ml at various concentrations, as indicated in the discussion below. No changes in cell morphology were noted on visualisation of the cells after stimulation. 24 hours later conditioned media in all experimental treatments were collected, spun down to remove debris, and placed immediately into −80° C. until the enzyme-linked immuno-sorbent assay (ELISA) was performed. The RPE cells were washed 3 times with ice-cold PBS and lysed in Laemmli buffer for Western blotting.
as §2
Due to relatively low levels of VEGFxxxb found free in the supernatant of RPE cells, for VEGFxxxb ELISA total protein in conditioned medium was precipitated with trichloroacetic acid (TCA). For this purpose 250 μl ice cold 24% TCA and 6.25 μl 2% Sodium Deoxycholate were added to 700 μl conditioned medium and left on ice for 15 min. After centrifugation at 5000×g for 10 min, pellets were collected and resuspended in lysis buffer, containing: 20 mM Tris, pH7.4, 1.5% w/v Triton X-100, 150 mM NaCl, 10% w/v glycerol and protease inhibitors cocktail (Sigma). The pH in the pelleted samples was adjusted to 7.4 with 1.5M Tris (pH8.8). The total protein content in the pellet was measured in conventional manner using bicinchoninic acid (BCA) reagent (Sigma).

[6] = tested on: VEGF terminal exon splice site selection; experiment: Western blotting of RPE cells after IGF-1
Experimental: as §3
Protein samples were dissolved in Laemmli buffer, boiled for 3-4 min and centrifuged for 2 min at 20,000 g to remove insoluble materials. 15 μg protein per lane were separated by Sodium Dodecyl Sulfate Polyacrylamide Gel Electrophoresis (SDS/PAGE) (12%) and transferred to 0.2 μm nitrocellulose membrane. […] Subsequently the membranes were incubated with secondary horseradish peroxidase (HRP) conjugated antibody, and immunoreactive bands were visualised using enhanced chemiluminescence (ECL) reagent (Pierce). […]

[7] = RT-PCR and ELISA (FIGS. 12 and 13)
[8] = podocytes, IGF-1, compared with control (FIG. 2B)

Compound: COc1cccc(-c2cc(=O)c3ccccc3o2)c1N [PD98059]
- TGF-β1 induced VEGFxxxb expression, effect of inhibitor [1]: not affected

Compound: C[S+]([O-])c1ccc(-c2nc(-c3ccncc3)c(-c3ccc(F)cc3)[nH]2)cc1 (stereo not shown) [SB203580, reference compound]
- TGF-β effect on expression of VEGFxxxb or VEGFxxx isoforms in presence of inhibitor ([2]; podocytes (FIG. 5B)): did not increase expression
- expression of VEGFxxx isoforms ([2]; podocytes treated with SB203580, below the detection limit): did not increase
- VEGF165b expression ([2]; podocytes treated with SB203580, untreated 850±50 pg/mg protein (FIG. 5A)): 450 ± 80 pg/mg
- TGF-β1 upregulation of VEGF165b by Western blotting, effect of inhibitor ([3]; podocytes (FIG. 5C)): inhibited
- TGF-β1 mediated increased intensity of the VEGFxxxb band (RT-PCR), effect of inhibitor ([1]; TGF-β1 1 nM): inhibited

Compound: O=C(Nc1cc(C(F)(F)F)ccc1N1CCCCC1)c1ccncc1 [SERPIN340]
- IGF-induced increase in PSS, effect of inhibitor [4, 7]: inhibited

Compound: CCN1/C(=C/C(C)=O)Sc2ccc(OC)cc21 [TG003]
- TGF-β1 induced VEGFxxxb expression, effect of inhibitor [1]: inhibited
- TGF-β1 mediated increased intensity of the VEGFxxxb band (RT-PCR), effect of inhibitor ([1]; TGF-β1 1 nM): inhibited

Compound: IGF-1: Insulin-like Growth Factor 1 (Sigma), growth factor favouring proximal splice site selection
- share of VEGF produced as VEGFxxxb ([5]; RPE cells after IGF-1 treatment, originally 80±32%): 5±20%
- VEGFtotal ([5]; RPE cells, 100 nM IGF-1, N=6, untreated 217±112): 1656±448 pg/mg protein
- VEGFxxxb ([5]; RPE cells, 100 nM IGF-1, untreated 78±12): 64±14 pg/mg protein
- VEGFxxx ([5]; RPE cells, 100 nM IGF-1, untreated 138±117): 1592 pg/mg protein
- VEGF165b by Western blotting ([6]; 100 nM IGF (FIG. 3A)): downregulated
- total VEGF relative to loading control by Western blotting ([6]; 100 nM IGF, β-actin loading control (FIG. 3B)): increase
- VEGF165b levels [2, 8]: decrease
- total VEGF levels [2, 8]: significant increase
- proximal splice site selection (PSS) ([4]; podocytes treated with IGF, RT-PCR and ELISA (FIGS. 12 and 13)): increases

Compound: TGF-β1: Transforming Growth Factor β1 (Sigma), growth factor favouring distal splice site selection
- fall of VEGFxxx expression levels ([2]; podocytes, 1 nM TGF-β): 70±7%
- increase of VEGFxxxb protein level ([2]; podocytes, TGF-β1 0.5 nM): 2.9±1.4 fold
- increase of total VEGF protein expression ([2]; podocytes, TGF-β1 0.5 nM): 2.25±0.65 fold
- increase of VEGFxxxb protein level ([2]; podocytes, TGF-β1 1 nM): 7.2±4.7 fold
- increase of total VEGF protein expression ([2]; podocytes, TGF-β1 1 nM): 4.63±0.61 fold
- VEGF165b and VEGF121b isoforms by Western blotting ([3]; podocyte cell lysate, 0.5 and 1 nM TGF-β1 (FIG. 4B)): upregulated
- relative density of the lower, VEGFxxxb, band (RT-PCR) ([1]; TGF-β1 1 nM): increase

Compound: TNF-α
- decrease of VEGFxxxb isoforms ([5]; RPE cells, 50 ng/ml TNF-α): 46±3%
- mean increase of VEGFxxx isoforms ([5]; RPE cells, 50 ng/ml TNF-α, n=3): 4.5±2.0 fold
- VEGFxxx isoforms ([5]; RPE cells, 50 ng/ml TNF-α, n=3, untreated 182±83): 825±366 pg/mg protein
- VEGFxxxb isoforms ([5]; RPE cells, 50 ng/ml TNF-α, untreated 99±26): 42±13 pg/mg protein

Compound: bisindolyl maleimide [BIM]
- IGF-induced increase in PSS, effect of inhibitor [4, 7]: inhibited
- VEGF isoform favoured ([4]; summary statement): favoured VEGF165b
